Test results reported in PubChem BioAssay AID1963831 (Molecular Pharmacology Branch, DTP, NCI, 2024).

Tested on: 889142-216-R-J1-PDC complex spheroid viability
Assay: Anticancer human tumor 889142-216-R-J1-PDC patient-derived bladder carcinoma cell line growth inhibition [POLQ]
Settings: for IC50: curve of first compound; for viability, T/C: stronger effect = lower value
How it was run: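 Three-cell-type spheroids modelling solid tumor plus stroma served as the readout system; POL inhibitors were tested individually and in combination, concentration ranges set by clinical Cmax where known.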

[1] = second compound 0.0316 µM, first compound 0.0316 µM
[2] = second compound 0.0316 µM, first compound 0.1 µM
[3] = second compound 0.0316 µM, first compound 0.316 µM
[4] = second compound 0.0316 µM, first compound 1 µM
[5] = second compound 0.0316 µM, first compound 3.16 µM
[6] = second compound 0.0316 µM, first compound 10 µM
[7] = second compound 0.1 µM, first compound 0.0316 µM
[8] = second compound 0.1 µM, first compound 0.1 µM
[9] = second compound 0.1 µM, first compound 0.316 µM
[10] = second compound 0.1 µM, first compound 1 µM
[11] = second compound 0.1 µM, first compound 3.16 µM
[12] = second compound 0.1 µM, first compound 10 µM
[13] = second compound 0.316 µM, first compound 0.0316 µM
[14] = second compound 0.316 µM, first compound 0.1 µM
[15] = second compound 0.316 µM, first compound 0.316 µM
[16] = second compound 0.316 µM, first compound 1 µM
[17] = second compound 0.316 µM, first compound 3.16 µM
[18] = second compound 0.316 µM, first compound 10 µM
[19] = second compound 1 µM, first compound 0.0316 µM
[20] = second compound 1 µM, first compound 0.1 µM
[21] = second compound 1 µM, first compound 0.316 µM
[22] = second compound 1 µM, first compound 1 µM
[23] = second compound 1 µM, first compound 3.16 µM
[24] = second compound 1 µM, first compound 10 µM
[25] = second compound 3.16 µM, first compound 0.0316 µM
[26] = second compound 3.16 µM, first compound 0.1 µM
[27] = second compound 3.16 µM, first compound 0.316 µM
[28] = second compound 3.16 µM, first compound 1 µM
[29] = second compound 3.16 µM, first compound 3.16 µM
[30] = second compound 3.16 µM, first compound 10 µM
[31] = second compound 10 µM, first compound 0.0316 µM
[32] = second compound 10 µM, first compound 0.1 µM
[33] = second compound 10 µM, first compound 0.316 µM
[34] = second compound 10 µM, first compound 1 µM
[35] = second compound 10 µM, first compound 3.16 µM
[36] = second compound 10 µM, first compound 10 µM
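Also: spheroids exposed to compounds for seven days.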
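For viability, T/C in this document: 100% = DMSO vehicle control viability.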

`CC1COCCN1c1cc(C2(S(C)(=N)=O)CC2)nc(-c2ccnc3[nH]ccc23)n1` (stereo not drawn) + Nc1ccc(C#CCN(C(=O)Cc2ncc(C(F)(F)F)cc2C(F)(F)F)c2ccc(F)cc2)nn1 gave an IC50 (second compound 0.0316 µM) of 2.9 µM, an IC50 (second compound 0.1 µM) of 2.59 µM and an IC50 (second compound 0.316 µM) of over 10 µM. For the same molecule, the IC50 (second compound 1 µM) was over 10 µM, the IC50 (second compound 3.16 µM) was over 10 µM and the IC50 (second compound 10 µM) was over 10 µM. For the same molecule, the viability, T/C [1] was 101%, the viability, T/C [2] was 82% and the viability, T/C [3] was 70.8%. The viability, T/C [4] was 59.3%, the viability, T/C [5] was 46.1% and the viability, T/C [6] was 45%. It also gave a viability, T/C [7] of 98%, a viability, T/C [8] of 89% and a viability, T/C [9] of 80.8%. For the same molecule, the viability, T/C [10] was 56.1%, the viability, T/C [11] was 51.5% and the viability, T/C [12] was 42.4%. For the same molecule, the viability, T/C [13] was 89.5%, the viability, T/C [14] was 74.7% and the viability, T/C [15] was 81.8%. For the same molecule, the viability, T/C [16] was 60.9%, the viability, T/C [17] was 48.9% and the viability, T/C [18] was 51.8%. For the same molecule, the viability, T/C [19] was 81.8%, the viability, T/C [20] was 79.2% and the viability, T/C [21] was 95.3%. The viability, T/C [22] was 63.2%, the viability, T/C [23] was 58.6% and the viability, T/C [24] was 42.8%. The viability, T/C [25] was 81.7%, the viability, T/C [26] was 89.3% and the viability, T/C [27] was 72.1%. The viability, T/C [28] was 59.2%, the viability, T/C [29] was 53.9% and the viability, T/C [30] was 56.5%. The viability, T/C [31] was 107%, the viability, T/C [32] was 99.2% and the viability, T/C [33] was 111%. It also gave a viability, T/C [34] of 62.4%, a viability, T/C [35] of 61% and a viability, T/C [36] of 48.4%.
In the case of `CC(=O)O[C@H]1C(=O)[C@@]2(C)[C@H]([C@H](OC(=O)c3ccccc3)[C@]3(O)C[C@H](OC(=O)[C@H](O)[C@@H](NC(=O)c4ccccc4)c4ccccc4)C(C)=C1C3(C)C)[C@]1(OC(C)=O)CO[C@@H]1C[C@@H]2O` + Nc1ccc(C#CCN(C(=O)Cc2ncc(C(F)(F)F)cc2C(F)(F)F)c2ccc(F)cc2)nn1, the IC50 (second compound 0.0316 µM) is reported as 0.072 µM, the IC50 (second compound 0.1 µM) is reported as 0.907 µM and the IC50 (second compound 0.316 µM) is reported as over 3 µM. The IC50 (second compound 1 µM) was 1.33 µM, the IC50 (second compound 3.16 µM) was under 0.00949 µM and the IC50 (second compound 10 µM) was over 3 µM. For the same molecule, the viability, T/C (second compound 0.0316 µM, first compound 0.00949 µM) was 53.5%, the viability, T/C (second compound 0.0316 µM, first compound 0.03 µM) was 45.8% and the viability, T/C (second compound 0.0316 µM, first compound 0.0949 µM) was 51.5%. The viability, T/C (second compound 0.0316 µM, first compound 0.3 µM) was 50.9%, the viability, T/C (second compound 0.0316 µM, first compound 0.949 µM) was 49.4% and the viability, T/C (second compound 0.0316 µM, first compound 3 µM) was 43.8%. It also gave a viability, T/C (second compound 0.1 µM, first compound 0.00949 µM) of 57.1%, a viability, T/C (second compound 0.1 µM, first compound 0.03 µM) of 41.5% and a viability, T/C (second compound 0.1 µM, first compound 0.0949 µM) of 54.6%. The viability, T/C (second compound 0.1 µM, first compound 0.3 µM) was 51.2%, the viability, T/C (second compound 0.1 µM, first compound 0.949 µM) was 53.1% and the viability, T/C (second compound 0.1 µM, first compound 3 µM) was 47.1%. The viability, T/C (second compound 0.316 µM, first compound 0.00949 µM) was 53%, the viability, T/C (second compound 0.316 µM, first compound 0.03 µM) was 57.2% and the viability, T/C (second compound 0.316 µM, first compound 0.0949 µM) was 46.3%. It also gave a viability, T/C (second compound 0.316 µM, first compound 0.3 µM) of 50.3%, a viability, T/C (second compound 0.316 µM, first compound 0.949 µM) of 61.7% and a viability, T/C (second compound 0.316 µM, first compound 3 µM) of 50.9%. The viability, T/C (second compound 1 µM, first compound 0.00949 µM) was 53.7%, the viability, T/C (second compound 1 µM, first compound 0.03 µM) was 51% and the viability, T/C (second compound 1 µM, first compound 0.0949 µM) was 52%. It also gave a viability, T/C (second compound 1 µM, first compound 0.3 µM) of 50.6%, a viability, T/C (second compound 1 µM, first compound 0.949 µM) of 51.8% and a viability, T/C (second compound 1 µM, first compound 3 µM) of 48.6%. It also gave a viability, T/C (second compound 3.16 µM, first compound 0.00949 µM) of 45.2%, a viability, T/C (second compound 3.16 µM, first compound 0.03 µM) of 54% and a viability, T/C (second compound 3.16 µM, first compound 0.0949 µM) of 51.3%. For the same molecule, the viability, T/C (second compound 3.16 µM, first compound 0.3 µM) was 46.7%, the viability, T/C (second compound 3.16 µM, first compound 0.949 µM) was 53.3% and the viability, T/C (second compound 3.16 µM, first compound 3 µM) was 57.1%. For the same molecule, the viability, T/C (second compound 10 µM, first compound 0.00949 µM) was 55%, the viability, T/C (second compound 10 µM, first compound 0.03 µM) was 52.2% and the viability, T/C (second compound 10 µM, first compound 0.0949 µM) was 55.5%. The viability, T/C (second compound 10 µM, first compound 0.3 µM) was 59.3%, the viability, T/C (second compound 10 µM, first compound 0.949 µM) was 59.9% and the viability, T/C (second compound 10 µM, first compound 3 µM) was 53.3%.
With `C=CC(=O)N1CCN(c2nc(=O)n(-c3c(C)ccnc3C(C)C)c3nc(-c4c(O)cccc4F)c(F)cc23)C(C)C1` (stereo not drawn) + Cc1cccc(N(C)C(=O)C2C(O)CCN2c2nc(C)cc(C(F)(F)F)c2C#N)c1 the IC50 (second compound 0.0316 µM) was over 10 µM, the IC50 (second compound 0.1 µM) was over 10 µM and the IC50 (second compound 0.316 µM) was over 10 µM. The IC50 (second compound 1 µM) was over 10 µM, the IC50 (second compound 3.16 µM) was over 10 µM and the IC50 (second compound 10 µM) was over 10 µM. For the same molecule, the viability, T/C [1] was 108%, the viability, T/C [2] was 93.5% and the viability, T/C [3] was 102%. The viability, T/C [4] was 115%, the viability, T/C [5] was 122% and the viability, T/C [6] was 81.4%. The viability, T/C [7] was 110%, the viability, T/C [8] was 112% and the viability, T/C [9] was 100%. For the same molecule, the viability, T/C [10] was 101%, the viability, T/C [11] was 132% and the viability, T/C [12] was 96.2%. For the same molecule, the viability, T/C [13] was 97.4%, the viability, T/C [14] was 119% and the viability, T/C [15] was 123%. The viability, T/C [16] was 116%, the viability, T/C [17] was 129% and the viability, T/C [18] was 106%. It also gave a viability, T/C [19] of 104%, a viability, T/C [20] of 107% and a viability, T/C [21] of 107%. It also gave a viability, T/C [22] of 111%, a viability, T/C [23] of 124% and a viability, T/C [24] of 89.3%. It also gave a viability, T/C [25] of 98.5%, a viability, T/C [26] of 89.3% and a viability, T/C [27] of 93.8%. The viability, T/C [28] was 97.2%, the viability, T/C [29] was 138% and the viability, T/C [30] was 87.9%. The viability, T/C [31] was 91.1%, the viability, T/C [32] was 74.8% and the viability, T/C [33] was 82.5%. The viability, T/C [34] was 100%, the viability, T/C [35] was 106% and the viability, T/C [36] was 76.7%.
`C=CC(=O)N1CCN(c2nc(=O)n(-c3c(C)ccnc3C(C)C)c3nc(-c4c(O)cccc4F)c(F)cc23)C(C)C1` (stereo not drawn) + Nc1ccc(C#CCN(C(=O)Cc2ncc(C(F)(F)F)cc2C(F)(F)F)c2ccc(F)cc2)nn1 gave an IC50 (second compound 0.0316 µM) of over 10 µM, an IC50 (second compound 0.1 µM) of over 10 µM and an IC50 (second compound 0.316 µM) of over 10 µM. It also gave an IC50 (second compound 1 µM) of over 10 µM, an IC50 (second compound 3.16 µM) of over 10 µM and an IC50 (second compound 10 µM) of over 10 µM. For the same molecule, the viability, T/C [1] was 95.4%, the viability, T/C [2] was 111% and the viability, T/C [3] was 87.8%. It also gave a viability, T/C [4] of 121%, a viability, T/C [5] of 133% and a viability, T/C [6] of 93.6%. For the same molecule, the viability, T/C [7] was 103%, the viability, T/C [8] was 89.2% and the viability, T/C [9] was 109%. It also gave a viability, T/C [10] of 129%, a viability, T/C [11] of 111% and a viability, T/C [12] of 102%. It also gave a viability, T/C [13] of 135%, a viability, T/C [14] of 127% and a viability, T/C [15] of 96.3%. The viability, T/C [16] was 96.5%, the viability, T/C [17] was 145% and the viability, T/C [18] was 111%. For the same molecule, the viability, T/C [19] was 113%, the viability, T/C [20] was 86% and the viability, T/C [21] was 120%. It also gave a viability, T/C [22] of 121%, a viability, T/C [23] of 116% and a viability, T/C [24] of 100%. The viability, T/C [25] was 126%, the viability, T/C [26] was 88.3% and the viability, T/C [27] was 119%. The viability, T/C [28] was 88.8%, the viability, T/C [29] was 119% and the viability, T/C [30] was 104%. The viability, T/C [31] was 99.5%, the viability, T/C [32] was 114% and the viability, T/C [33] was 121%. The viability, T/C [34] was 95.1%, the viability, T/C [35] was 126% and the viability, T/C [36] was 131%.
